These results are taken from PubChem BioAssay (NCI).

Test systems include 786-0 renal; A498 renal; A549 NSCLC; BT-549 breast; HT29 colon; MCF7 breast; MDA-N; MOLT-4 leukemia; NCI-H460 lung; NCI-H522 lung; NCI/ADR-RES ovarian; OVCAR-3 ovarian; SF-268 CNS; SK-MEL-2 melanoma; SK-MEL-5 melanoma; SNB-19 CNS; SNB-75 CNS; SW-620 colon; UACC-62 melanoma; UO-31 renal.
Common to all, as to experiment: NCI-60 cell line screen, 48 h

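Five concentrations, 48 hours, 96-well plates. TGI is the concentration that stops growth completely.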 Where only a bound is given, the exact number is not on record here.

Turning to `CC1=NN(c2nc(N)nc(CBr)n2)C(C)(C)C1`, the TGI with 786-0 renal stood at 1.78 µM; with A498 renal, 25.7 µM; in the assay on A549 NSCLC it was 37.1 µM; in the assay on BT-549 breast, 28.9 µM; in the assay with HT29 colon, 18.6 µM; with MCF7 breast, 11.3 µM. In addition, the TGI with MDA-N was 25.5 µM; in the assay on MOLT-4 leukemia, 4.72 µM; in the assay with NCI-H460 lung it was 23.8 µM; in the assay on NCI-H522 lung, 1.01 µM; in the assay on NCI/ADR-RES ovarian, 45.4 µM; in the assay on OVCAR-3 ovarian, 13.4 µM. Besides, the TGI in the assay with SF-268 CNS is 23 µM; in the assay with SK-MEL-2 melanoma, 26.2 µM; in the assay on SK-MEL-5 melanoma, 26.2 µM; with SNB-19 CNS, 36.6 µM; with SNB-75 CNS it was 21.7 µM; with SW-620 colon, 12.7 µM. The TGI came to 21.7 µM in the assay with UACC-62 melanoma and 1.61 µM in the assay with UO-31 renal.
As to `O=C(c1cc2ccccc2[nH]1)N1C2CCC1CN(CCOC(c1ccc(F)cc1)c1ccc(F)cc1)CC2` (centres undefined), the TGI in the assay on 786-0 renal, in the assay with A498 renal, with A549 NSCLC, in the assay with BT-549 breast, in the assay with HT29 colon and in the assay on MCF7 breast was above 100 µM throughout. Also, the TGI in the assay with MDA-N, in the assay on MOLT-4 leukemia, with NCI-H460 lung, in the assay with NCI-H522 lung, in the assay with NCI/ADR-RES ovarian and in the assay with OVCAR-3 ovarian was above 100 µM throughout. Further, the TGI in the assay with SF-268 CNS, in the assay on SK-MEL-2 melanoma, with SK-MEL-5 melanoma, in the assay with SNB-19 CNS, with SNB-75 CNS and with SW-620 colon was above 100 µM each time. Also, in the assay with UACC-62 melanoma, the TGI was above 100 µM.
For the molecule `COC(=O)CCC(C)[C@H]1CCC2C3C(C[C@H](OC(C)=O)[C@@]21C)[C@@]1(C)CCC2(C[C@H]1C[C@H]3OC(C)=O)OOC1(CCCC1)OO2` (some centres undefined), the TGI in the assay with 786-0 renal, in the assay on A498 renal, in the assay on A549 NSCLC, in the assay on BT-549 breast, with HT29 colon and in the assay with MCF7 breast was above 100 µM throughout. The TGI in the assay with MDA-N, in the assay on MOLT-4 leukemia, in the assay on NCI-H460 lung, in the assay with NCI-H522 lung, in the assay with NCI/ADR-RES ovarian and in the assay on OVCAR-3 ovarian was above 100 µM each time. The TGI in the assay on SF-268 CNS, in the assay on SK-MEL-2 melanoma, in the assay with SK-MEL-5 melanoma, with SNB-19 CNS, with SNB-75 CNS and with SW-620 colon was above 100 µM in each case. The TGI in the assay with UO-31 renal came to 27.8 µM.
For the molecule `OCc1cc2c(ccc3sc4ccc5sc6ccc7ncccc7c6c5c4c32)s1`, the TGI in the assay on 786-0 renal is 15.1 µM; in the assay with A498 renal, above 100 µM; with A549 NSCLC, 31.1 µM; in the assay with BT-549 breast, 38.6 µM; with HT29 colon, 39.7 µM; with MCF7 breast, 42.2 µM. Further, the TGI in the assay on MDA-N was 23.9 µM; in the assay with MOLT-4 leukemia, 48.4 µM; in the assay on NCI-H460 lung, 26.3 µM; with NCI-H522 lung, 27.6 µM; in the assay on NCI/ADR-RES ovarian, 82.5 µM; with OVCAR-3 ovarian, above 100 µM. In addition, the TGI with SK-MEL-2 melanoma is 31.3 µM; in the assay with SK-MEL-5 melanoma it was 11.8 µM; with SNB-19 CNS it was 28.7 µM; with SNB-75 CNS, 22.8 µM; in the assay on SW-620 colon, above 100 µM; in the assay on UACC-62 melanoma it was 38.6 µM. The molecule also returned a TGI in the assay with UO-31 renal of 7.25 µM.
Take `CCOc1ccc(N/C(=C(/C(Cl)=C(/Cl)Nc2ccccc2)[N+](=O)[O-])n2nnc3ccccc32)cc1`: the TGI in the assay on 786-0 renal was 62.3 µM; in the assay on A498 renal it was above 100 µM; with A549 NSCLC, above 100 µM; in the assay with BT-549 breast it was 28.7 µM; with MCF7 breast it was above 100 µM; in the assay on MDA-N it was 40.3 µM. For the same molecule, the TGI with MOLT-4 leukemia is above 100 µM; in the assay with NCI-H460 lung, above 100 µM; in the assay on NCI-H522 lung, 39.5 µM; with NCI/ADR-RES ovarian it was 53.7 µM; in the assay with OVCAR-3 ovarian, 80.8 µM; in the assay on SF-268 CNS, 53.4 µM. Also, the TGI in the assay on SK-MEL-2 melanoma was 73.7 µM; with SK-MEL-5 melanoma, 37 µM; in the assay on SNB-19 CNS, above 100 µM; in the assay with SNB-75 CNS it was above 100 µM; in the assay on UACC-62 melanoma it was 43.5 µM; in the assay with UO-31 renal, 54.5 µM.
Take `O=c1ccn(CC2(CO)CCCC2)c(=O)[nH]1`: the TGI in the assay on 786-0 renal, with A498 renal, with A549 NSCLC, in the assay on BT-549 breast, with HT29 colon and with MCF7 breast was above 100 µM each time. In addition, the TGI in the assay on MDA-N, with MOLT-4 leukemia, with NCI-H460 lung, in the assay with NCI-H522 lung, in the assay on NCI/ADR-RES ovarian and in the assay with OVCAR-3 ovarian was above 100 µM in each case. The TGI with SF-268 CNS, in the assay with SK-MEL-2 melanoma, with SK-MEL-5 melanoma, with SNB-75 CNS, in the assay with SW-620 colon and with UACC-62 melanoma was above 100 µM throughout. In addition, the TGI in the assay on UO-31 renal was above 100 µM.
